Usually melting point stands for the temperature, or range, at which the solid turns liquid. As usually defined, the IC50 is the concentration needed to halve the response being measured.

Structures can show the parent of a compound that is named as a salt.

The results in this text go back to patent US7008636B2, “2,3,5-substituted biphenyls useful in the treatment of insulin resistance and hyperglycemia” (Wyeth, priority 1998, dated 2006).

The target of data set [1] is T1, recombinant, human protein tyrosine phosphatase (PTP) 1B (hPTP1B) (Homo sapiens, UniProt P18031).
T1 construct: made in house
T1 sequence (P18031 1-435): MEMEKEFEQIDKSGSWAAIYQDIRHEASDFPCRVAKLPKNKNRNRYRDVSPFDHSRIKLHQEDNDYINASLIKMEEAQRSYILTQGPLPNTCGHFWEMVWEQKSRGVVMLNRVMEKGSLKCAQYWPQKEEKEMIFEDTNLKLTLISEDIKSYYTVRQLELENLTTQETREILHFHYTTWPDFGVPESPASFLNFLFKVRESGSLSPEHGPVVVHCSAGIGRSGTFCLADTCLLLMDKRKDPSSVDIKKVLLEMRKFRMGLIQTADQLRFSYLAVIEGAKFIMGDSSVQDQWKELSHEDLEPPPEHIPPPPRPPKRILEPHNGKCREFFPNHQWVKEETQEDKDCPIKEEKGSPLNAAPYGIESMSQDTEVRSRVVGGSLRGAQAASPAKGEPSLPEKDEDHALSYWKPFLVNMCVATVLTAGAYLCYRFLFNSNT
The experiment in a line: Inhibition of tri-phosphorylated insulin receptor dodecaphosphopeptide dephosphorylation by hPTP1B. The format is biochemical. As to conditions: 50 μM IR triphosphopeptide substrate, 5 min preincubation and 5 min reaction at 37° C., malachite green-ammonium molybdate phosphate detection.

On to `CCCCCCCCCCCCNC(=O)c1cc(-c2ccc(F)c(Cl)c2)c(OCC(=O)O)c(-c2ccc(F)c(Cl)c2)c1` (as salt: sodium) [Example 24, (3,3″-Dichloro-5′-dodecylcarbamoyl-4,4″-difluoro[1,1′;3′,1″]terphenyl(-2′-yloxy)-acetic acid sodium salt], for which the melting point was 140.2 to 141 °C.

Regarding `CCOP(=O)(COc1c(-c2cccc(C(F)(F)F)c2)cc(C(=O)NCCCCCCCc2ccccc2)cc1-c1cccc(C(F)(F)F)c1)OCC` (hydrate or solvate), the melting point fell in the range of 84 to 85 °C.

In the case of `O=C(NCCCCCCCc1ccccc1)c1cc(-c2cccc(C(F)(F)F)c2)c(OCP(=O)(O)O)c(-c2cccc(C(F)(F)F)c2)c1` (hydrate or solvate) [Example 128, [5′-(7-Phenyl-heptylcarbamoyl)-3,3″-bis-trifluoromethyl-[1,1′:3′,1″]terphenyl-2′-yloxymethyl]-phosphonic acid], the melting point was 160 to 165 °C.

With `COc1ccc(-c2cc(-c3ccc(C(=O)NCCCCCCCc4ccccc4)cc3)cc(-c3ccc(OC)cc3)c2OCc2ccc(C(=O)O)cc2)cc1` (hydrate or solvate) [Example 133], the melting point fell in the range of 140 to 142 °C.

As for `O=C(O)c1ccc(COc2c(-c3cccc(C(F)(F)F)c3)cc(C(=O)NCCCCCCCc3ccccc3)cc2-c2cccc(C(F)(F)F)c2)cc1` (hydrate or solvate) [Example 134, 4-[5′-(7-Phenyl-heptylcarbamoyl)-3,3″-bis-trifluoromethyl-[1,1′:3′,1″]terphenyl-2′-yloxymethyl]-benzoic acid], the melting point lay within 89 to 91 °C.

`O=C(O)COc1c(-c2cccc(C(F)(F)F)c2)cc(C(=O)NCCCCCCCCc2ccccc2)cc1-c1cccc(C(F)(F)F)c1` [Example 7]: the melting point was 143 to 145.4 °C.

Turning to `O=C(O)COc1c(-c2ccccc2)cc(C(=O)NCCCCCCCCc2ccccc2)cc1-c1cc(Cl)cc(Cl)c1` [Example 27, [3,5-Dichloro-5′-(8-phenyl-octylcarbamoyl)-[1,1′;3′,1″]terphenyl-2′-yloxy]-acetic acid], the melting point lay within 82 to 83.1 °C.

For `CCCCCCCCCCCCNC(=O)c1cc(-c2cccc(Cl)c2)c(OCC(=O)O)c(-c2cccc(Cl)c2)c1` [Example 33, (3,3″-Dichloro-5′-dodecylcarbamoyl-[1,1′;3′,1″]terphenyl-2′-yloxy)-acetic acid], the melting point fell in the range of 151 to 156 °C.

Turning to `CCCCCCCCCCCCNC(=O)c1cc(Br)c(OCC(=O)O)c(-c2cccc(Cl)c2)c1` [Example 34, (3-Bromo-3′-chloro-5-dodecylcarbamoyl-biphenyl-2-yloxy)-acetic acid], the melting point was > 100 °C (dec.).

With `O=C(O)COc1c(-c2cccc(Cl)c2)cc(C(=O)NCCCCCCCCc2ccccc2)cc1-c1cccc(Cl)c1` [Example 35, [3,3″-Dichloro-5′-(8-phenyl-octylcarbamoyl)-[1,1′;3′,1″]terphenyl-2′-yloxy]-acetic acid], the melting point lay within 165 to 167 °C.

In the case of `O=C(O)COc1c(-c2ccccc2)cc([N+](=O)[O-])cc1-c1ccccc1` [Example 38, (5′-Nitro-[1,1′;3′,1″]terphenyl-2′-yloxy)-acetic acid], the melting point lay in the range of 153.5 to 156 °C.

The compound `COc1cc(-c2ccccc2)c(OCC(=O)O)c(-c2ccccc2)c1` [Example 39, (5′-Methoxy-[1,1′;3′,1″]terphenyl-2′-yloxy)acetic acid] registered a melting point of 143 to 145 °C.

As for `O=C(O)COc1c(-c2ccccc2)cc(Br)cc1-c1ccccc1` [Example 40, (5′-Bromo-[1,1′;3′,1″]terphenyl-2′-yloxy)-acetic acid], the melting point is > 50 °C (dec.).

Take `O=C(O)COc1c(-c2ccccc2)cc(-c2ccccc2)cc1-c1ccccc1` [Example 41, [(5′-Phenyl[1,1′:3′,1″-terphenyl]-2′-yl)oxy]acetic acid]: the melting point is > 68 °C (dec.).

On to `O=C(O)COc1c(-c2ccccc2)cc2oc3ccccc3c2c1-c1ccccc1` [Example 42, (1,3-Diphenyl-dibenzofuran-2-yloxy)-acetic acid], for which the melting point is > 120 °C (dec.).

Regarding `O=C(O)COc1c(Br)cc2oc(C(=O)c3ccccc3)cc2c1Br` [Example 43, (2-Benzoyl-4,6-dibromo-benzofuran-5-yloxy)acetic acid], the melting point lay in the range of 179 to 181 °C.

Compound `CCCCOc1cc(-c2ccccc2)c(OCC(=O)O)c(-c2ccccc2)c1` [Example 44, (5′-Butoxy-[1,1′;3′,1″]terphenyl-2′-yloxy)acetic acid] gave a melting point of 92 to 94 °C.

`CCCCCCCCOc1cc(-c2ccccc2)c(OCC(=O)O)c(-c2ccccc2)c1` [Example 45, (5′-Octyloxy-[1,1′;3′,1″]terphenyl-2′-yloxy)acetic acid] showed a melting point of 82 to 84 °C.

With `O=C(O)COc1c(-c2cccc(Cl)c2)cc(C(=O)NCCc2ccccn2)cc1-c1cccc(Cl)c1` [Example 52, [3,3″-Dichloro-5′-(2-pyridin-2-yl-ethylcarbamoyl)-[1,1′;3′,1″]terphenyl-2′-yloxy]acetic acid], the melting point is > 94 °C (dec.).

Regarding `O=C(O)COc1c(-c2cccc(Cl)c2)cc(C(=O)N(CCc2ccccc2)Cc2ccccc2)cc1-c1cccc(Cl)c1` [Example 53, [5′-(Benzyl-phenethyl-carbamoyl)-3,3″-Dichloro-[1,1′;3′,1″]terphenyl-2′-yloxy]acetic acid], the melting point was > 67 °C (dec.).

In the case of `O=C(O)COc1c(-c2cccc(Cl)c2)cc(C(=O)NCCCCc2ccccc2)cc1-c1cccc(Cl)c1` [Example 54, [3,3″-Dichloro-5′-(4-phenyl-butylcarbamoyl)-[1,1′;3′,1″]terphenyl-2′-yloxy]acetic acid], the melting point is > 164 °C (dec.).

For `O=C(O)COc1c(Br)cc(C(=O)N(CCc2ccccc2)Cc2ccccc2)cc1-c1cccc(Cl)c1` [Example 55, [5-(Benzyl-phenethyl-carbamoyl)-3-bromo-3′-chloro-biphenyl-2-yloxy]acetic acid], the melting point is > 72 °C (dec.).

As for `O=C(O)COc1c(Br)cc(C(=O)NCCc2ccccn2)cc1-c1cccc(Cl)c1` [Example 56, [3-Bromo-3′-chloro-5-(2-pyridin-2-yl-ethylcarbamoyl)-biphenyl-2-yloxy]acetic acid], the melting point is > 102 °C (dec.).

As to `O=C(O)COc1c(-c2cccc(Cl)c2)cc(C(=O)N(CCc2ccccc2)Cc2ccccc2)cc1-c1cccc(C(F)(F)F)c1` [Example 57, [5′-(Benzyl-phenethyl-carbamoyl)-3″-chloro-3-trifluoromethyl-[1,1′;3′,1″]terphenyl-2′-yloxy]acetic acid], the melting point is > 75 °C (dec.).

Take `O=C(O)COc1c(-c2cccc(Cl)c2)cc(C(=O)NCCc2ccccn2)cc1-c1cccc(C(F)(F)F)c1` [Example 58, [3″-Chloro-5′-(2-pyridin-2-yl-ethylcarbamoyl)-3-trifluoromethyl-[1,1′;3′,1″]terphenyl-2′-yloxy]acetic acid]: the melting point was > 92 °C (dec.).

Take `O=C(O)COc1c(-c2cccc(Cl)c2)cc(C(=O)NCCCc2ccccc2)cc1-c1cccc(C(F)(F)F)c1` [Example 59, [3″-Chloro-5′-(3-phenyl-propylcarbamoyl)-3-trifluoromethyl-[1,1′;3′,1″]terphenyl-2′-yloxy]acetic acid]: the melting point is > 106 °C (dec.).

For `O=C(O)COc1c(-c2cccc(Cl)c2)cc(C(=O)NCCCC2CCCC2)cc1-c1cccc(C(F)(F)F)c1` [Example 61, [3″-Chloro-5′-(3-cyclopentyl-propylcarbamoyl)-3-trifluoromethyl-[1,1′;3′,1″]-terphenyl-2′-yloxy]acetic acid], the melting point lay in the range of 173 to 175 °C.

On to `O=C(O)COc1c(Br)cc(C(=O)NCCCC2CCCC2)cc1-c1cccc(Cl)c1` [Example 62, [3-Bromo-3′-chloro-5-(3-cyclopentyl-propylcarbamoyl)-biphenyl-2-yloxy]acetic acid], for which the melting point was > 135 °C (dec.).

`O=C(O)COc1c(-c2cccc(Cl)c2)cc(C(=O)NCCc2ccc(Br)cc2)cc1-c1cccc(C(F)(F)F)c1` [Example 63, {5′-[2-(4-Bromo-phenyl)-ethylcarbamoyl]-3″-chloro-3-trifluoromethyl-[1,1′;3′,1″]-terphenyl-2′-yloxy}acetic acid]: the melting point was > 102 °C (dec.).

Take `COc1ccc(-c2cc(C(=O)NCCc3ccccn3)cc(-c3cccc(C(F)(F)F)c3)c2OCC(=O)O)cc1` [Example 65, [4″-Methoxy-5′-(2-pyridin-2-yl-ethylcarbamoyl)-3-trifluoromethyl-[1,1′;3′,1″]-terphenyl-2′-yloxy]acetic acid]: the melting point was > 105 °C (dec.).

On to `CN(CCCCCCCCc1ccccc1)C(=O)c1cc(-c2ccc(F)c(Cl)c2)c(OCC(=O)O)c(-c2ccc(F)c(Cl)c2)c1` [Example 213, {3,3″-Dichloro-4,4″difluoro-5′-[methyl-(8-phenyl-octyl)-carbamoyl]-[1,1′;3′1″]terphenyl-2′yloxy}-acetic acid], for which the half-inhibitory concentration (IC50) in data set [1] was determined as 0.198 µM.

“Ammonium molybdate tetrahydrate [reference compound]”: the IC50 in data set [1] is 8.7 µM.

For “[[4,4′-Dimethoxy-5′-[4-[[(7-phenylheptyl)amino]carbonyl]phenyl][1,1′:3′,1-terphenyl]-2′-yl]oxy]acetic acid [Example 131]”, the concentration for half-maximal inhibition (IC50) in data set [1] was 0.124 µM.

As to “[[5′-[4-[[(7-Phenylheptyl)amino]carbonyl]phenyl]-3,3′-bis(trifluoromethyl)[1,1′:3′,1′-terphenyl]-2′-yl]oxy]acetic acid [Example 132]”, in data set [1], the IC50 is 0.084 µM.
